# Measured values as given in US20230414644A1, “ORAL CANINE FEED AND METHODS FOR CONTROLLING FLEA INFESTATIONS IN A CANINE” (In the Bowl Animal Health, Inc., priority 2021, published 2023).
# System: Ctenocephalides felis
# Test: Efficacy of spinosyn administered per os (liquid formulation, daily) to dogs against experimental flea infestation, comb counts of live adult fleas
# Assay type: in vivo
# Conditions: for percent reduction in live adult flea counts: day 14 comb count; for Efficacy (percent reduction in live adult flea counts): day 37, after the five day wash out period
# Excerpt: Efficacy of Spinosyn Administered Per Os, i.e. by Mouth, to Dogs for the Treatment and Control of Ctenocephalides felis.
# Methods: A pool of 40 dogs are to be preliminarily infested with ˜100 unfed adult C. felis in order to produce a pool of dogs that can suitably sustain a reliable infestation rate of approximately 50% of live fleas over a 48-hour period. The dogs with the highest live flea counts are to be randomly allocated to 4 treatment groups (6 dogs per group) based on their pre-treatment flea counts from experimental infestations. The first treatment group is to be the control group and groups 2-4 are to be the test groups.
# The dogs are to be housed individually during the study period and are to be fed a commercial dry dog food ration with ad libitum access to water.
# Dogs in the control group are not to receive a spinosyn or any other flea control treatment. Each dog in test groups 2-4 is to be offered its daily ration (dry food) and the individual doses of liquid formulation are to be administered after the individual dog has eaten at least 25% of its total daily ration. After receiving the dose of a spinosyn the dogs are to be allowed to continue eating. This mimics incorporating the spinosyn in feed. Each dog in test groups 2-4 and the control group is to be experimentally infested with 100 unfed adult fleas on test days −1, 5, 12, 19, 28 and 35. Comb counts for live adult fleas are to be conducted on days 2, 7, 14, 21, 30 and 37. The final experimental infestation is to occur five days after the last daily dose of spinosyn.
substance,measurement,setting,value
spinosad,percent reduction in live adult flea counts,0.25 mg/kg daily oral (Group 2),100%
same,percent reduction in live adult flea counts,0.50 mg/kg daily oral (Group 3),100%
same,Efficacy (percent reduction in live adult flea counts),0.50 mg/kg daily oral days 0-29 (Group 3),over 98%
same,percent reduction in live adult flea counts,1.0 mg/kg daily oral (Group 4),100%
same,Efficacy (percent reduction in live adult flea counts),1.0 mg/kg daily oral days 0-29 (Group 4),over 98%
